Here are results for one compound from patent US20090068150A1, “LACTIC ACID BACTERIA CULTURE OF MUNG BEAN AND THE PREPARATION METHOD OF THE SAME, AND THE COSMETIC COMPOSITION COMPRISING THE SAME” (Doosan Corporation, priority 2005, published 2009).

One assay concerns CD-1 mouse. The assay is described as follows: Inflammation (skin stimulus) alleviating effect on TPA-induced ear inflammation. The assay is classed as in vivo. The method, then: In order to examine the inflammation (skin stimulus) alleviating effect of the lactic acid bacteria culture of mung bean containing the mung bean extract and GABA, which was obtained in the embodiment 2, a following test was conducted according to a method used by Sheu et al. (The Journal of Investigative Dermatology, 118, pp 94-101, 2002).
First, CD-1 mouse (male & female, 6-8 weeks, Charles River, USA) were used as test objects, and as stimulus material, 10 μl of TPA (12-O-tetradecanonylphorbol-13-acetate) 0.03% (wt/vol. in acetone) solution was applied to inside and outside of both ears of the test animals. Due to the treatment material, the ear was thickened and there occurred an inflammatory reaction. After that, as a positive control group, clofibrate (1 mM) and Wy14643 (1 mM) which are agonists of PPAR CL (Sheu et al., The Journal of Investigative Dermatology, 118, pp 94-101, 2002), and as a test material, the lactic acid bacteria culture of mung bean in the embodiment 2 were applied to the both surfaces of the ears in an amount of […], respectively, at 45 minutes and 4 hours after the inflammation induction.

The subject of another assay is skin. To be noted: applied to the skin; cited from earlier work.

Turning to `Cc1cccc(Nc2cc(Cl)nc(SCC(=O)O)n2)c1C` [WY14643], the “ear swelling vs control group treated with TPA only (FIG. 4)” value in the assay with CD-1 mouse (TPA + WY14643 (1 mM), applied 45 minutes and 4 hours after induction) is listed as “the swelling was decreased”. Besides, the “inflammation alleviation, H&E dyed tissue slide (FIG. 5)” value in the assay on CD-1 mouse (positive controls 1 mM (group C Wy14643, group B clofibrate), vs TPA only) was “the inflammation was also alleviated”. Besides, the “skin inflammation due to stimulus materials after application to the skin” value in the assay with skin is “the inflammation due to stimulus materials is decreased”.
